In assay [1] the target is T1, rat TRPM8 (Rattus norvegicus, UniProt Q8R455).
T1 construct: In the assays exemplified herein, cells which express the full-length TRPM8 polypeptide are used in high throughput assays; expressed in transfected cells; host or cells: Xenopus oocytes microinjected with rat TRPM8 cRNA
The settings on record: 22-24° C., McKemy et al. Nature 416:52-58 (2002); read-out: reported EC50 in oocytes; cited from earlier work.

The target of assay [2] is T1, rat TRPM8. Nature of the assay: Voltage clamp electrophysiology in Xenopus oocytes expressing rat TRPM8 (OpusXpress). Type of assay: cell-based. The settings on record: for peak agonist-induced currents: 4-6 independent oocytes; for peak agonist-induced currents / desensitization of agonist-induced currents: one day post-injection; for desensitization of agonist-induced currents: continued presence of agonist; for specific activation of rat TRPM8 expressed in oocytes: no responses in uninjected control oocytes. The method, then: Xenopus oocytes are microinjected with a TRPM8 nucleic acid sequence according to the invention.
The microinjected oocytes are voltage-clamped at around 60 mV using the OpusXpress 600A one day post-injection and treated with either buffer (control) or a potential or known TRPM8 modulator contained in same buffer at a fixed concentration or over a range of different concentrations (dose-escalation).
The current is measured for said buffer-treated or putative TRPM8 modulator-treated oocytes over a specific time period. Additionally, the current response is measured for oocytes treated with the same buffer which are not injected with a TRPM8 nucleic acid sequence (negative control).
The current response for said oocytes is compared in order to determine the effect (if any) of said potential TRPM8 modulator compound on TRPM8 activity and whether said effect is dose-specific.
In this experiment an electrophysiological assay was conducted using oocytes that express rat TRPM8. Specifically, oocytes were microinjected with 10 ng rat TRPM8 cRNA and were voltage-clamped at ˜60 mV using the OpusXpress 600A one day post-injection and treated with buffer and menthol (left traces) or icilin (right traces).
Oocytes were microinjected with 10 ng rat TRPM8 […] and voltage-clamped at ˜60 mV using the OpusXpress 6000A one day post-injection and then treated with the compounds shown in the FIG. 6. In the Figure, peak agonist-induced currents are summarized for 4-6 independent oocytes.
In these experiments, oocytes were again injected with 2 ng rat TRPM8 cRNA (as shown in left panel of FIG. 7) or uninjected (right panel) and currents were measured from ˜80 mV to 100 mV (in 20 mV increments) in the presence of buffer (control; green curves) or 100 μM menthol (red curves) four days post-injection. The blue curves in FIG. 7 depict menthol-specific currents obtained by subtracting control (green) from menthol (red) curves.
In this experiment, oocytes were again microinjected with 10 ng rat TRPM8 cRNA, voltage-clamped at ˜60 mV and currents measured 2-3 days post-injection.

Assay [3] has as its target T1, rat TRPM8. Nature of the assay: Fluorimetric calcium imaging (FLIPR), HEK293 cells transiently transfected with rat TRPM8. It counts as cell-based. The following applies: chilled stimulus compared with warmer stimulus. As to the method: HEK-293 cells (about 50-70% confluency) contained in 10 cm dishes are transfected with 5 μg of TRPM8 DNA and pcDNA3 and 2 μg of RFP plasmids using TransH293.
After 24 hours, the cells are split into 384-well plates at ˜50,000 cells/well.
At 48 hours post-transfection the cells are loaded with 4 μM Fluo-3-AM 3 AM in HBSS for 30 minutes at 37° C.
The cells are then washed twice within HBSS containing 2.5 mM Probenicid and returned to 37° C. for 15 minutes.
Compound plates are prepared in HBSS at twice the final concentration and kept at 37° C. to insure that rTRPM8 is not activated by a decrease in ambient temperature during stimulation (TRPM8 is activated by temperatures<22° C.).
HEK293 cells are transfected with a plasmid encoding the rat TRPM8 cDNA (in pcDNA3.1) and are seeded into 384-well plates. 48 hours later, cells are loaded with Fluo-3-AM. Cells are then stimulated with various stimuli as shown in FIG. 2 and fluorescence intensity in each well measured using a Fluorimetric Imaging Plate Reader (FLIPR). […]
HEK293 cells transfected with a plasmid encoding rat TRPM8 cDNA contained in pcDNA3.1 were seeded into 384-well plates. […] Cells were then stimulated with the stimuli shown in FIG. 3 and fluorescence intensity in each well measured using a Fluorimetric Imaging Plate Reader (FLIPR). […]

Assay [4] in a line: Human taste test, cooling intensity. Type of assay: in vivo. The following applies: five human panelists, two trials, Tukey's HSD 5% risk level. As to the method:
In this experiment the cooling effect of a putative coolant, SID 391254, identified using the subject assays was analyzed in human taste tests. Particularly, the cooling intensity for three test samples was tested in five human volunteer panelists in two trials. […] The tests were conducted in booths with the data recorded using Compusense software. Additionally, these experiments further included the administration of WS-3, a known coolant (positive control).
For both samples containing the known or the putative cooling compound (WS-3 and SID 391254 respectively), these compounds were contained in low sodium buffer (LSB) and 0.1% ethanol.
This experiment compared the cooling effect of another putative coolant compound (SID 10135651) identified using the described assays. […] As with the prior example, significant differences between the known and putative coolant compound vis-à-vis the control were calculated using Tukey's HSD (5% risk level). […] These tests were again conducted in booths with the data recorded using Compusense software.
The coolant effect of another putative cooling compound (SID 7292725) identified using the subject screening assays was tested in human taste tests. Again cooling intensity scores were determined based on results in 5 human taste panelists in two trials. Significant differences were again calculated using Tukey's HSD (5% risk level).

Read-outs that look alike come from different tables or passages of the source.

T1 sequence (Q8R455 whole entry): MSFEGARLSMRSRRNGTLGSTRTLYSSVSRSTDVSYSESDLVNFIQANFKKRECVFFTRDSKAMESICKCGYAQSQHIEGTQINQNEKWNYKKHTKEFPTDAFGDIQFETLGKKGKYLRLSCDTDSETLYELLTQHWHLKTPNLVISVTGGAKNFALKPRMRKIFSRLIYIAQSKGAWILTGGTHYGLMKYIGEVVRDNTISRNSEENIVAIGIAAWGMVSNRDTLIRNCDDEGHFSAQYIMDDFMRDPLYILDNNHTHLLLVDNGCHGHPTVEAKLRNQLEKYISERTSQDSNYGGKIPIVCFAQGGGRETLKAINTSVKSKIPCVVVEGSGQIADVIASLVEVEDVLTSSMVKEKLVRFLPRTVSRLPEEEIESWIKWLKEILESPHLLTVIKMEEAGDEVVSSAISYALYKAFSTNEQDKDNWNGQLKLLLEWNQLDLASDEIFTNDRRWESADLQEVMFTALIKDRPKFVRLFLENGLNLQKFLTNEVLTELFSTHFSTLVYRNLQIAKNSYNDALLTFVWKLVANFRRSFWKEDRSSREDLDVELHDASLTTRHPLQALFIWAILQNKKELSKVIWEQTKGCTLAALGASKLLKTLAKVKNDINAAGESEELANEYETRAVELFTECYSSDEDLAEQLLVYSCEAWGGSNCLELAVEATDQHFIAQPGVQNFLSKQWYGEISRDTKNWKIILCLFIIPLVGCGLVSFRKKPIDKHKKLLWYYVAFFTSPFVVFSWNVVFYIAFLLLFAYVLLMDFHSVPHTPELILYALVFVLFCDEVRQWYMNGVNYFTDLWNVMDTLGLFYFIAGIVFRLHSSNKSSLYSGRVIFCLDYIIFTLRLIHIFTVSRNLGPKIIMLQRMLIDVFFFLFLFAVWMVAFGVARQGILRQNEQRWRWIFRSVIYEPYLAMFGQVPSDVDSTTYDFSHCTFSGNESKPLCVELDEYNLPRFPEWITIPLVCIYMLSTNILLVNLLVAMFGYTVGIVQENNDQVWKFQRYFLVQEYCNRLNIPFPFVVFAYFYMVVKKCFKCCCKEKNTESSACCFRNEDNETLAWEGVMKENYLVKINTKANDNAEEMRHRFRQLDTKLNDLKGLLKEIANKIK

With `CC1CCC(C(C)C)C(O)C1` (centres unmarked) [menthol], the concentration giving a half-maximal response (EC50) (usually the concentration needed to bring the measured effect to its halfway point) in assay [1] is 67 µM. The “current/voltage (I/V) curve of menthol-specific currents” value in assay [2] (100 μM menthol, 2 ng cRNA, four days post-injection) is reported as “outward rectification”. In addition, in assay [2], the peak agonist-induced currents entry is on record as “large peak currents”, the “desensitization of agonist-induced currents” value is on record as “partially-desensitize” and the “specific activation of rat TRPM8 expressed in oocytes” value is “specifically activate”. The half-maximal effective concentration (EC50) in assay [2] (oocytes, 10 ng rat TRPM8 cRNA, 19.5° C.) was found to be 29.6 µM. Further, in assay [3], the “potency of chilled versus warmer agent at activating TRPM8” value was “more potent”.

For `O=C1NC(c2cccc([N+](=O)[O-])c2)=CCN1c1ccccc1O` [icilin], in assay [2], the peak agonist-induced currents entry is given as “large peak currents”, the “desensitization of agonist-induced currents” value is given as “completely desensitize” and the “specific activation of rat TRPM8 expressed in oocytes” value was “specifically activate”. The “potency of chilled versus warmer agent at activating TRPM8” value in assay [3] is given as “more potent”.

For `CCNC(=O)C1CC(C)CCC1C(C)C` (centres unmarked) [WS-3], the “cooling intensity compared with negative control (LSB and 0.1% ethanol)” value in assay [4] is “substantially higher cooling intensity”.

For the compound `C` [methane], the peak agonist-induced currents result in assay [2] is “small peak currents”.

Consider `CC12CCC(CC1)C(C)(C)O2` [eucalyptol], for which the peak agonist-induced currents result in assay [2] is listed as “small peak currents”.

Values taken from patent publication US20070259354A1, “OPTIMIZED TRPM8 NUCLEIC ACID SEQUENCES AND THEIR USE IN CELL BASED ASSAYS AND TEST KITS TO IDENTIFY TRPM8 MODULATORS” (Senomyx, Inc., priority 2005, published 2007).
